# Source: US12617773B2, “Azetidin-3-ylmethanol derivatives as CCR6 receptor modulators” (Idorsia Pharmaceuticals Ltd, priority 2020, dated 2026)
# Target: T1, human CCR6 (Homo sapiens, UniProt P51684)
# T1 construct: expressed in transfected cells; host or cells: HEK-293
# T1 sequence (P51684 1-374): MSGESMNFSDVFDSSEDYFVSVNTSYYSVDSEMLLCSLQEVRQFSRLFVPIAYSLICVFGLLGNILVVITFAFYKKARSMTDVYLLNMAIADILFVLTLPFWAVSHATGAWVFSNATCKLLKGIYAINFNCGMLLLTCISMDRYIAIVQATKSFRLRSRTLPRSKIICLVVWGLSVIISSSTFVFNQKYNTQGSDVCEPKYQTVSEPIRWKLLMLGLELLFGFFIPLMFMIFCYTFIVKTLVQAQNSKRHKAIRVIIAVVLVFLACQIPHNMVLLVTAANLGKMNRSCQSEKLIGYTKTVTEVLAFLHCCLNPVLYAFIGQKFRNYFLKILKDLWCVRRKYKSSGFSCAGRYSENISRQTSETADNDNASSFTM
# Assay: FLIPR assay (inhibition of CCL20-induced calcium signal)
# Format: cell-based
# Conditions: FLIPR IC50 (nM), HEK-293 cells expressing human CCR6; mean values where determined several times
# Method in brief: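 Dye-loaded HEK-293 cells expressing human CCR6 were preincubated with compound for 30 min at room temperature in the dark, then challenged with 10 nM CCL20 (final). Fluorescence was tracked on FLIPR, and baseline-subtracted peak emission over base after agonist addition gave inhibition dose-response curves for IC50.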
row,SMILES,IC50 [nM]
1,CN1CC(C)(C(O)(c2ccc(C(C)(C)C)cc2)c2cncc(N3CCCC3)c2)C1 (stereo not shown) [Example 157],27.7

# Same assay, conditions: HEK-293 cells expressing human CCR6; mean values where determined several times; read-out: FLIPR IC50
row,IC50 [nM],SMILES
1,43.4,COCc1nc(-c2cncc([C@@](O)(c3ccc(C(C)C)cc3)C3(C)CN(C)C3)c2)no1 [Example 105]
2,46.7,CC(C)c1ccc([C@](O)(c2cncc(-c3noc(C4CCOC4)n3)c2)C2(C)CN(C)C2)cc1 (stereo partly shown) [Example 106]
3,54.3,CC(C)c1ccc([C@](O)(c2cncc(-c3noc(C4CCOCC4)n3)c2)C2(C)CN(C)C2)cc1 [Example 107]
4,21,CC(C)c1ccc([C@](O)(c2cncc(-c3noc(C4(O)CCCCC4)n3)c2)C2(C)CN(C)C2)cc1 [Example 108]
5,21.2,CC(C)c1ccc([C@](O)(c2cncc(-c3noc(COC(C)(C)C)n3)c2)C2(C)CN(C)C2)cc1 [Example 109]
6,39.1,CC(C)c1ccc([C@](O)(c2cncc(-c3noc(CC4CCOCC4)n3)c2)C2(C)CN(C)C2)cc1 [Example 110]
7,43,CC(C)c1ccc([C@](O)(c2cncc(-c3noc(C4CCC(O)CC4)n3)c2)C2(C)CN(C)C2)cc1 (stereo partly shown) [Example 111]
8,38.5,CC(C)c1ccc([C@](O)(c2cncc(-c3noc(CC4(O)CCCCC4)n3)c2)C2(C)CN(C)C2)cc1 [Example 112]
9,29.8,COC1(c2nc(-c3cncc([C@@](O)(c4ccc(C(C)C)cc4)C4(C)CN(C)C4)c3)no2)CCC1 [Example 113]
10,38,CC(C)c1ccc([C@](O)(c2cncc(-c3noc(C4CC45CCOCC5)n3)c2)C2(C)CN(C)C2)cc1 (stereo partly shown) [Example 114]
11,41,CC(C)c1ccc([C@](O)(c2cncc(-c3noc(C4CCCOC4)n3)c2)C2(C)CN(C)C2)cc1 (stereo partly shown) [Example 115]
12,40.8,CC(C)c1ccc([C@](O)(c2cncc(-c3noc(CC4CCCO4)n3)c2)C2(C)CN(C)C2)cc1 (stereo partly shown) [Example 116]
13,20.1,CC(C)c1ccc([C@](O)(c2cncc(-c3noc([C@@](C)(O)C(F)(F)F)n3)c2)C2(C)CN(C)C2)cc1 [Example 117]
14,43.1,COC(C)(C)c1nc(-c2cncc([C@@](O)(c3ccc(C(C)C)cc3)C3(C)CN(C)C3)c2)no1 [Example 118]
15,20.5,CC(C)c1ccc([C@](O)(c2cncc(-c3noc([C@H](O)C4CCCCC4)n3)c2)C2(C)CN(C)C2)cc1 [Example 119]
16,59.2,CC(C)c1ccc([C@](O)(c2cncc(-c3noc(C4(O)CC4)n3)c2)C2(C)CN(C)C2)cc1 [Example 120]
17,57.7,CC(C)c1ccc([C@](O)(c2cncc(-c3noc(C(C)(C)O)n3)c2)C2(C)CN(C)C2)cc1 [Example 121]
18,42.1,CC(C)c1ccc([C@](O)(c2cncc(-c3noc(C4(O)CCCC4)n3)c2)C2(C)CN(C)C2)cc1 [Example 122]
19,46.9,CC(C)c1ccc([C@](O)(c2cncc(-c3noc(C4CC(O)C4)n3)c2)C2(C)CN(C)C2)cc1 (stereo partly shown) [Example 123]
20,35.9,CC(C)c1ccc([C@](O)(c2cncc(-c3noc(C4(F)CCOCC4)n3)c2)C2(C)CN(C)C2)cc1 [Example 124]
21,46.9,CC(C)c1ccc([C@](O)(c2cncc(-c3noc([C@H]4C[C@@H](C)O[C@@H](C)C4)n3)c2)C2(C)CN(C)C2)cc1 [Example 125]
22,84.9,CC(C)c1ccc([C@](O)(c2cncc(-c3noc(COC4CCOCC4)n3)c2)C2(C)CN(C)C2)cc1 [Example 126]
23,32.4,CC(C)c1ccc([C@](O)(c2cncc(-c3noc(C(C)(C)C4CCOCC4)n3)c2)C2(C)CN(C)C2)cc1 [Example 127]
24,40.3,CC(C)c1ccc([C@](O)(c2cncc(-c3noc(CCC4CCOCC4)n3)c2)C2(C)CN(C)C2)cc1 [Example 128]
25,35.9,CC(C)c1ccc([C@](O)(c2cncc(-c3noc(C4(O)CCC4)n3)c2)C2(C)CN(C)C2)cc1 [Example 129]
26,74.7,CC(C)c1ccc([C@](O)(c2cncc(-c3noc(CC(C)(C)O)n3)c2)C2(C)CN(C)C2)cc1 [Example 130]
27,60.8,CC(C)c1ccc([C@](O)(c2cncc(-c3noc(C4CC5CCC4O5)n3)c2)C2(C)CN(C)C2)cc1 (stereo partly shown) [Example 131]

row,IC50 [nM],SMILES
1,50.1,CC(C)c1ccc([C@](O)(c2cncc(-c3noc(COC4(C)CCOCC4)n3)c2)C2(C)CN(C)C2)cc1 [Example 132]
2,74.5,CC(C)c1ccc([C@](O)(c2cncc(-c3noc(C4COC4)n3)c2)C2(C)CN(C)C2)cc1 [Example 133]
3,62,"COCC(C)(C)c1nc(-c2cncc([C@@](O)(c3ccc(C(C)C)cc3)C3(C)CN(C)C3)c2)no1 [Example 134, (R)-(1,3-Dimethyl-azetidin-3-yl)-(4-isopropyl-phenyl)-{5-[5-(2-methoxy-1,1-dimethyl-ethyl)-[1,2,4]oxadiazol-3-yl]-pyridin-3-yl}-methanol]"
4,74,CC(C)c1ccc([C@](O)(c2cncc(-c3noc(C(C)(C)CO)n3)c2)C2(C)CN(C)C2)cc1 [Example 135]
5,123,COC(C)(C)Cc1nc(-c2cncc([C@@](O)(c3ccc(C(C)C)cc3)C3(C)CN(C)C3)c2)no1 [Example 136]
6,60.3,CC(C)c1ccc([C@](O)(c2cncc(-c3noc(CC4(O)CCC4)n3)c2)C2(C)CN(C)C2)cc1 [Example 137]
7,45.8,COCC1(Cc2nc(-c3cncc([C@@](O)(c4ccc(C(C)C)cc4)C4(C)CN(C)C4)c3)no2)CC1 [Example 138]
8,66.6,"CC(C)c1ccc([C@](O)(c2cncc(-c3noc(CCn4cccn4)n3)c2)C2(C)CN(C)C2)cc1 [Example 139, (R)-(1,3-Dimethyl-azetidin-3-yl)-(4-isopropyl-phenyl)-{5-[5-(2-pyrazol-1-yl-ethyl)-[1,2,4]oxadiazol-3-yl]-pyridin-3-yl}-methanol]"
9,681,"[2H]C([2H])([2H])C(=O)NCCc1nc(-c2cncc([C@@](O)(c3ccc(C(C)C)cc3)C3(C)CN(C)C3)c2)no1 [Example 140, (R)—N-(2-(3-(5-((1,3-dimethylazetidin-3-yl)(hydroxy)(4-isopropylphenyl)methyl)pyridin-3-yl)-1,2,4-oxadiazol-5-yl)ethyl)acetamide-2,2,2-d3]"
10,211,[2H]C([2H])([2H])C(=O)NC(C)(C)Cc1nc(-c2cncc([C@@](O)(c3ccc(C(C)C)cc3)C3(C)CN(C)C3)c2)no1 [Example 141]
11,274,CC(C)c1ccc([C@](O)(c2cncc(-c3noc(C4CCN(C(=O)CO)CC4)n3)c2)C2(C)CN(C)C2)cc1 [Example 142]
12,188,[2H]C([2H])([2H])C(=O)N1CCC(c2nc(-c3cncc([C@@](O)(c4ccc(C(C)C)cc4)C4(C)CN(C)C4)c3)no2)CC1 [Example 143]
13,376,"CC(C)c1ccc([C@](O)(c2cncc(-c3noc(CCN(C)C(=O)CO)n3)c2)C2(C)CN(C)C2)cc1 [Example 144, N-[2-(3-{5-[(R)-(1,3-Dimethyl-azetidin-3-yl)-hydroxy-(4-isopropyl-phenyl)-methyl]-pyridin-3-yl}-[1,2,4]oxadiazol-5-yl)-ethyl]-2-hydroxy-N-methyl-acetamide]"
14,274,"[2H]C([2H])([2H])C(=O)N(C)CCc1nc(-c2cncc([C@@](O)(c3ccc(C(C)C)cc3)C3(C)CN(C)C3)c2)no1 [Example 145, (R)—N-(2-(3-(5-((1,3-dimethylazetidin-3-yl)(hydroxy)(4-isopropylphenyl)methyl)pyridin-3-yl)-1,2,4-oxadiazol-5-yl)-ethyl)-N-methylacetamide-d3]"
15,309,"COc1ccc(C(O)(c2ccc(OC(F)(F)F)cc2)C2(C)CN(C)C2)cn1 (stereo not shown) [Example 146, (1,3-Dimethyl-azetidin-3-yl)-(6-methoxy-pyridin-3-yl)-(4-trifluoromethoxy-phenyl)-methanol]"
16,63.5,CN1CC(C)(C(O)(c2ccc(OC(F)(F)F)cc2)c2ccc(Oc3ccccc3)nc2)C1 (stereo not shown) [Example 147]
17,35.8,"CCCc1ccc(C(O)(c2cncc(N3CCCC3)c2)C2(C)CN(C)C2)cc1 (stereo not shown) [Example 150, (1,3-Dimethyl-azetidin-3-yl)-(4-propyl-phenyl)-(5-pyrrolidin-1-yl-pyridin-3-yl)-methanol]"
18,336,COc1ccc(C(O)(c2cncc(N3CCCC3)c2)C2(C)CN(C)C2)cc1 (stereo not shown) [Example 151]
19,60.2,CCc1ccc(C(O)(c2cncc(N3CCCC3)c2)C2(C)CN(C)C2)cc1 (stereo not shown) [Example 152]
20,214,CN1CC(C)(C(O)(c2ccccc2)c2cncc(N3CCCC3)c2)C1 (stereo not shown) [Example 153]
21,36.8,CN1CC(C)(C(O)(c2ccc(C3CCC3)cc2)c2cncc(N3CCCC3)c2)C1 (stereo not shown) [Example 154]
22,28,CN1CC(C)(C(O)(c2ccc(OC3CCC3)cc2)c2cncc(N3CCCC3)c2)C1 (stereo not shown) [Example 155]
23,147,CCOc1ccc(C(O)(c2cncc(N3CCCC3)c2)C2(C)CN(C)C2)cc1 (stereo not shown) [Example 156]
24,222,CC(C)Oc1ccc(C(O)(c2cncc(N3CCCC3)c2)C2(C)CN(C)C2)cc1 (stereo not shown) [Example 158]
25,91.6,CN1CC(C)(C(O)(c2ccc(C3(C(F)(F)F)CC3)cc2)c2cncc(N3CCCC3)c2)C1 (stereo not shown) [Example 159]
26,82.9,CN1CC(C)(C(O)(c2ccc(C3(C)CC3)cc2)c2cncc(N3CCCC3)c2)C1 (stereo not shown) [Example 160]
27,202,CN1CC(C)(C(O)(c2ccc(OC3CC3)cc2)c2cncc(N3CCCC3)c2)C1 (stereo not shown) [Example 161]
